Data as given in patent US20120190707A1, “SELECTIVE INHIBITORS OF AKT AND METHODS OF USING SAME” (priority 2008, published 2012).

What was measured:
[1] = test system: UACC 903 melanoma xenografts; test: UACC 903 melanoma xenografts in nude mice; format: in vivo
Method: (A) Nude mice were subcutaneously injected with UACC 903 cells and tumors were allowed to reach an approximate size of 1 mm^3 before intraperitoneal treatment was started; treatment was performed twice per week for 3 weeks with the indicated concentrations of BI-69A11. Each of the experimental groups consisted of 10 mice that were subjected to treatment with the indicated concentration of BI-69A11. […] Tumors were measured with calipers at the indicated time points. The mice were sacrificed and tumors harvested at the end of this period were measured and weighed to determine tumor volume and mass. Blue bars represent control-vehicle treated group; yellow bars represent the 5 mg/Kg treatment group; the orange and green bars represent the 1 and 2 mg/Kg treatment groups, respectively. (B) Analysis of cell death in the tumors was performed using Tunel staining. Shown are representative pictures for control tumors (right) and a treatment group (5 mg/Kg; left). (C) Quantification of Tunel staining in the different tumor groups. Samples from each of the tumors were subjected to Tunel staining which was quantified by Aperio ImageScope and confirmed by visual inspection of representative samples. The percentage of Tunel positive cells is indicated in the graph. […]
In light of the efficient cell death elicited by BI-69A11, we assessed its activity on tumor growth in mouse xenografts. […]
For the tumor studies, UACC 903 cells […] were injected subcutaneously and tumor size was monitored using calipers twice per week. […] At the end of the study, tumors were harvested, weighed and measured.
For the tunel assay and quantitative analysis, the detection of nuclei with fragmented DNA by terminal deoxyribonucleotidyl transferase-mediated dUTP nick end labeling (TUNEL) was accomplished using the ApopTag Peroxidase In situ Apoptosis Detection Kit (Chemicon, Temecula, Calif., US) according to the instructions of the manufacturer. […]

CHK2 = CHK2 (Homo sapiens, UniProt O96017); test: Invitrogen SelectScreen Kinase Profiling Service; format: biochemical
Chain of CHK2 (O96017 whole entry): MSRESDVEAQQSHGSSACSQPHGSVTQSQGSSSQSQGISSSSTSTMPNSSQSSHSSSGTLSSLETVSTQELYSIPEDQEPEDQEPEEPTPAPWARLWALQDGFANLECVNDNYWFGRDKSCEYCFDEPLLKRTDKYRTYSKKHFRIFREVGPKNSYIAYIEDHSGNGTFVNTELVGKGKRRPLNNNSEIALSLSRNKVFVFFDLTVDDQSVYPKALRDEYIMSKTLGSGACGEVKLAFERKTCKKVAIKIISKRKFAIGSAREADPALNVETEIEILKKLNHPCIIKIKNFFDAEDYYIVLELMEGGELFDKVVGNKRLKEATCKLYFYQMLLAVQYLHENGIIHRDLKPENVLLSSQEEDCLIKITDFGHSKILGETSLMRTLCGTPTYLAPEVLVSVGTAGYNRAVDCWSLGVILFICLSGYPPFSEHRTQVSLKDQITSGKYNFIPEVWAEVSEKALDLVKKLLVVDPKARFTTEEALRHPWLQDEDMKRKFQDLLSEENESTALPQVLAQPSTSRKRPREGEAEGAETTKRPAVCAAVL
Method: In addition to its inhibition of AKT, BI-69A11 was tested for inhibition of additional protein kinases using the Invitrogen SelectScreen Kinase Profiling Service. The Ser/Thr protein kinase, Checkpoint Kinase 2 (CHK2), is an important component in the cellular response to DNA damage. In response to genotoxic stresses such as g-irradiation, which causes double stranded DNA breaks, the Ataxia Telangiectasia Mutated (ATM) protein kinase is activated, which in turn phosphorylates a number of downstream effectors, such as CHK2. Activation of the ATM-CHK2 axis enforces the DNA damage checkpoint response, halting the cell cycle in order to initiate DNA repair.
To accomplish this, we g-irradiated vehicle- or BI69A11-treated cells and examined ATM and CHK2 phosphorylation, a well-characterized surrogate of activation (FIG. 13). In vehicle-treated cells, g-irradiation led to the robust phosphorylation of ATM and CHK2.

PC3 prostate tumor cells = test: Cell death by trypan blue staining, PC3; format: cell-based; conditions: PC3, 5 micro.M, within 4 hours
Method: (A) MeWo melanoma cells growing in 60 mm plates were treated with the indicated concentration of the inhibitor for 4 h before proteins were prepared for western blot analysis using the indicated antibodies. Level of beta.actin was monitored as a control for protein loading. (B) Experiment was performed as indicated in panel A, except that cells were harvested after 24 h for analysis of cell death using trypan blue staining. (C) Melanoma (MeWo), prostate cancer (PC3) and breast cancer (MCF7) cells were treated with BI-69A11 at the indicated concentrations; levels of AKT phosphorylation or expression were assessed 4 h later. The level of beta.actin used as a control for protein loading. (D) Experiment was performed as indicated in panel C, except that cells were harvested after 4 h for analysis of cell death using trypan blue staining.
For the proliferation assays, cells were treated as described above. However, instead of scraping cells into the serum-free medium, floating cells were collected in a 15 mL centrifuge tube whereas adherent cells trypsinized gently. The total cell population was pooled and counted on a hemocytometer after staining with Trypan Blue.

[2] = 0.5-2.0 mg/kg intra-peritoneally twice per week, 3 weeks

O=C(/C=C/c1nc2ccccc2[nH]1)c1c(O)nc2ccc(Cl)cc2c1-c1ccccc1 [Compound 2, (E)-3-(3-(1H-benzo[d]imidazol-2-yl)acryloyl)-6-chloro-4-phenylquinolin-2(1H)-one]
growth of the melanoma tumors [1, 2]: effectively inhibits further growth
regression of the tumors [1, 2]: efficient regression
apoptosis in tumors by Tunel staining, compared with control tumors ([1]; treatment groups 0.5-2.0 mg/kg): higher degrees of apoptosis
kinase profiling result for CHK2 (CHK2): possible target
cell death (PC3 prostate tumor cells): about 25%
